# Reference: patent US20240009190A1, “COMBINATION CANCER THERAPY USING CHK INHIBITOR” (SHANGHAI HUAYU BIOTECHNOLOGY CO., LTD., priority 2020, published 2024)
# Legend:
# [1] = tested on: MC38 cells; test: MC38 tumor model in transgenic mice, Compound 6, anti-PD-1 antibody and gemcitabine (Example 5); assay type: in vivo, C57BL/6-Pdcd1^em(hPDCD1) Cd274^em1(hPD-L1)/Smoc mice; details: Day 23; Compound 6 15 mg/kg IP QD × 14; GEM 20 mg/kg IV QW × 2; anti-PD-1 10 mg/kg IP Q5D × 3
# Protocol: MC38 cells were maintained at 37° C. in 5% CO2 in RPMI 1640 medium (10-040-CV, Corning cellgro) supplemented with 10% FBS (10270-106, GIBCO) and used before the 10th subculture.
# Female C57BL/6-Pdcd1^em(hPDCD1) Cd274^em1(hPD-L1)/Smoc mice (Shanghai Model Organisms), 20-25 g, were subcutaneously injected with about 5×10^5 MC38 cells, respectively.
# When tumors grew to 50-70 mm^3, these mice were randomly assigned to 8 groups, 8 mice per group, this day was at Day 9. From Day 9, the animals were administered with gemcitabine (GEM) in saline at 20 mg/mL, an anti-PD-1 antibody (Toripalimab, Shanghai Junshi Biosciences Co., Ltd. China) in saline at 40 mg/mL, Compound 6 in saline at 8 mg/mL, Compound 6+gemcitabine, gemcitabine+anti-PD-1, Compound 6+anti-PD-1, Compound 6+gemcitabine+anti-PD-1, and the control vehicle (5% GS), respectively, according to the dosing regimen shown in Table 11 below.
# Mice were observed every day for their physical conditions and activities, and mice body weight and tumor volume were measured every other day. The tumor volume (V) was calculated as (length×width^2)/2.
# Mice body weights, and tumor sizes were analyzed using the t-test in SPSS, and group differences were deemed statistically significant when the p-value was 0.05 or less.
# Tumor growth inhibition (TGI) was calculated by the following formula. Tumor growth inhibition=(average tumor size in vehicle group-average tumor size in administration group)/average tumor size in vehicle group×100%
# Zheng-Jun Jin's Q value was calculated as described above.
# [2] = Mice body weight in CT-26 WT tumor model (Example 2); assay type: in vivo, BALB/c female mice; details: for Average body weight: compounds 15 mg/kg tail vein once per day, anti-m-PD-1 10 mg/kg IP once every five days
# Protocol: (§1) Mice were observed every day for their physical conditions and activities, and mice body weight and tumor volume were measured every Tuesday, Thursday and Sunday. The tumor volume (V) was calculated as (length×width^2)/2.
# (§2) At Day 23, mice were subject to euthanasia, from which tumors were collected, weighed and photographed. Mice body weights, tumor sizes and tumor weights were analyzed using the t-test in SPSS, and group differences were deemed statistically significant when the p-value was 0.05 or less. Tumor weight based tumor growth inhibition (TGI) and Zheng-Jun Jin's Q value were calculated.
# [3] = Mice body weight and survival in CT-26 WT tumor model (Example 1); assay type: in vivo, BALB/c female mice; details: Day 27; Compound 6 35 mg/kg, anti-m-PD-1 10 mg/kg
# Protocol: as §1
# (§3) At Day 27, mice were subject to euthanasia, from which tumors were collected, weighed and photographed. Mice body weights, tumor sizes and tumor weights were analyzed using the t-test in SPSS, and group differences were deemed statistically significant when the p-value was 0.05 or less.
# [4] = tested on: CT-26 WT cells; test: CT-26 WT subcutaneous tumor model, CHK inhibitors at lower dose with anti-m-PD-1 antibody (Example 2); assay type: in vivo, BALB/c female mice; details: for Average tumor size: compounds 15 mg/kg tail vein once per day, anti-m-PD-1 10 mg/kg IP once every five days
# Protocol: The anti-tumor effect of Compound 6 at a lower dose in combination with an anti-PD-1 antibody was studied in this Example. Further, three compounds obtained by structurally modifying Compound 6, i.e., Compound 6-1, Compound 6-2 and Compound 6-3, were tested alone or in combination with an anti-PD-1 antibody for their anti-tumor effects.
# At Day 0, 105 BALB/c female mice, 4-5 weeks old, were subcutaneously injected with about 200.0 μL of the CT-26 WT cell medium containing about 5×10^5 cells, respectively.
# At Day 5, 80 tumor-bearing mice were randomly assigned to ten groups according to their body weights, 8 mice per group. The remaining mice were subject to euthanasia.
# The ten groups of animals were administered with an anti-m-PD-1 antibody (BE0146, BioXcell) in PBS (21-040-CVR, BioXcell) at 1.0 mg/mL, Compound 6 in saline at 1.5 mg/mL, Compound 6-1 in saline at 1.5 mg/mL, Compound 6-2 in saline at 1.5 mg/mL, Compound 6-3 in saline at 1.5 mg/mL, the anti-m-PD-1 antibody+Compound 6, the anti-m-PD-1 antibody+Compound 6-1, the anti-m-PD-1 antibody+Compound 6-2, the anti-m-PD-1 antibody+Compound 6-3, and the control vehicle (saline), respectively, at doses shown in Table 3 below.
# as §1, §2
# [5] = tested on: CT-26 WT cells; test: CT-26 WT subcutaneous tumor model, Compound 6 with anti-m-PD-1 antibody (Example 1); assay type: in vivo, BALB/c female mice; details: Day 27; Compound 6 35 mg/kg tail vein once per day; anti-m-PD-1 10 mg/kg IP once every five days, four times
# Protocol: CT-26 WT cells were maintained at 37° C. in 5% CO2 in RPMI 1640 medium (10-040-CV, Corning cellgro) supplemented with 10% FBS (10270-106, GIBCO) and used before the 10th subculture.
# At Day 0, 45 BALB/c female mice, 4-5 weeks old, were subcutaneously injected with about 200.0 μL of the CT-26 WT cell medium containing about 5×10^5 cells, respectively.
# At Day 5, 32 tumor-bearing mice were randomly assigned to four groups according to their body weights, 8 mice per group. The remaining mice were subject to euthanasia. […]
# as §1, §3
# Tumor growth inhibition (TGI) was calculated by the following two formulae. […]
# Further, Zheng-Jun Jin's Q value was calculated using the formula Q=EA+B/(EA+EB−EA×EB) to assess the combined effect of the anti-PD-1 antibody and Compound 6, wherein EA+B, EA, and EB referred to the TGIs of the combination therapy, anti-PD-1 administration and Compound 6 administration, respectively. […]
# [6] = tested on: MC38 cells; test: MC38 tumor model in mPD-1-/- mPD-L1-/- hPD-1+/+ hPD-L1+/+ transgenic mice (Example 3); assay type: in vivo, C57BL/6-Pdcd1^em1(hPDCD1) Cd274^em1(hPD-L1)/Smoc mice
# Protocol: MC38 cells were maintained at 37° C. in 5% CO2 in RPMI 1640 medium (10-040-CV, Corning cellgro) supplemented with 10% FBS (10270-106, GIBCO, Thermo Fisher Scientific), 100 U/ml penicillin and 100 U/ml streptomycin in 10-cm Petri dishes.
# Female C57BL/6-Pdcd1^em1(hPDCD1) Cd274^em1(hPD-L1)/Smoc mice, 20-25 g (Shanghai Model Organisms), were subcutaneously injected with about 3×10^5 MC38 cells, respectively.
# When tumors grew to 50-70 mm^3, these mice were randomly assigned to four groups, 8 mice per group, this day was designated as Day 0. From Day 0, the animals were administered with an anti-PD-1 antibody (Toripalimab, Shanghai Junshi Biosciences Co., Ltd. China) in saline at 40.0 mg/mL, an hIgG4 (Novoprotein, NovoPro Bioscience Inc.) in saline at 3.3 mg/mL, Compound 6 in saline at 8 mg/mL in combination with the anti-PD-1 antibody, and Compound 6 in combination with hIgG4, respectively, according to the dosing regimen shown in Table 8 above.
# Mice were observed every day for their physical conditions and activities, and mice body weight and tumor volume were measured twice a week. The tumor volume (V) was calculated as (length×width^2)/2.
# Mice in Group 1 and Group 2 were subjected to euthanasia at Day 14, and those from Group 3 and Group 4 on Day 21, from which tumors were collected and photographed. Mice body weights and tumor sizes were analyzed using the t-test in SPSS, and group differences were deemed statistically significant when the p-value was 0.05 or less. TGI and Zheng-Jun Jin's Q value were calculated.
# [7] = tested on: MC38 cells; test: MC38 tumor model in transgenic mice, lower dose of anti-PD-1 antibody (Example 4); assay type: in vivo, C57BL/6-Pdcd1^em1(hPDCD1) Cd274^em1(hPD-L1)/Smoc mice; details: Compound 6 8 mg/kg IP QD × 14; anti-PD-1 or hIgG4 2.5 mg/kg IP BIW × 3
# Protocol: The test of Example 3 was repeated in the same transgenic mouse model using a lower dose of anti-PD-1 antibody, i.e., 2.5 mg/kg anti-PD-1, with some other minor modifications.
# In particular, female C57BL/6-Pdcd1^em1(hPDCD1) Cd274^em1(hPD-L1)/Smoc mice (Shanghai Model Organisms), 5-7 weeks old, were subcutaneously injected with about 3×10^5 MC38 cells, respectively.
# When tumors grew to 50-100 mm^3, these mice were randomly assigned to four groups, 8 mice per group, this day was designated as Day 0. From Day 0, the animals were administered with an anti-PD-1 antibody (Toripalimab, Shanghai Junshi Biosciences Co., Ltd. China) in 5% GS (5% glucose solution) at 40 mg/mL, an hIgG4 (Novoprotein, NovoPro Bioscience Inc.) in 5% GS at 3.3 mg/mL, Compound 6 in 5% GS at 8 mg/mL in combination with the anti-PD-1 antibody, and Compound 6 in combination with hIgG4, respectively, according to the dosing regimen shown in Table 10 below.
# [8] = patients receiving various doses; pooled analysis of 14 phase I-III studies; cited from earlier work
# [9] = Day 23, compounds 15 mg/kg, anti-m-PD-1 10 mg/kg
compound,measurement,setting,value
"NC(=O)c1nnc(N[C@H]2CCCNC2)c2cc(-c3cccc(F)c3)sc12 [Compound 6, 2-(3-fluorophenyl)-4-(3-piperidineamino)-thieno[2,3-d]pyridazine-7-carboxylic acid amide]",TGI based on tumor sizes,[1],52.53%
same,Average body weight,[2]; Day 9,16.39 g
same,Average body weight,[2]; Day 10,16.85 g
same,Average body weight,[2]; Day 12,16.87 g
same,Average body weight,[2]; Day 14,17.03 g
same,Average body weight,[2]; Day 16,17.88 g
same,Average body weight,[2]; Day 18,17.89 g
same,Average body weight,[2]; Day 20,18.25 g
same,Average body weight,[2]; Day 22,18.37 g
same,Average body weight,[2]; Day 23,18.98 g
same,"average mice weight, tumor weight deducted",[2]; [9],17.63 g
same,"average mice weight, tumor weight deducted",[3],18.41 g
same,Average tumor size,[4]; Day 9,163.24 mm^3
same,Average tumor size,[4]; Day 10,220.45 mm^3
same,Average tumor size,[4]; Day 12,367.43 mm^3
same,Average tumor size,[4]; Day 14,494.61 mm^3
same,Average tumor size,[4]; Day 16,666.40 mm^3
same,Average tumor size,[4]; Day 18,770.93 mm^3
same,Average tumor size,[4]; Day 20,955.40 mm^3
same,Average tumor size,[4]; Day 22,1094.31 mm^3
same,Average tumor size,[4]; Day 23,1071.65 mm^3
same,Tumor weight based TGI,[4]; [9],52.30%
same,"Tumor weight, Average","[4]; Day 23, group average of 8 mice",1.35 g
same,"Tumor weight, Mouse no. 1","[4]; Day 23, individual mouse",0.95 g
same,"Tumor weight, Mouse no. 2","[4]; Day 23, individual mouse",0.28 g
same,"Tumor weight, Mouse no. 3","[4]; Day 23, individual mouse",0.59 g
same,"Tumor weight, Mouse no. 4","[4]; Day 23, individual mouse",2.43 g
same,"Tumor weight, Mouse no. 5","[4]; Day 23, individual mouse",2.97 g
same,"Tumor weight, Mouse no. 6","[4]; Day 23, individual mouse",0.97 g
same,"Tumor weight, Mouse no. 7","[4]; Day 23, individual mouse",2.04 g
same,"Tumor weight, Mouse no. 8","[4]; Day 23, individual mouse",0.57 g
same,TGI - tumor size,[5],72.74%
same,TGI - tumor weight,[5],77.53%
"Nc1ccn([C@@H]2O[C@H](CO)[C@@H](O)C2(F)F)c(=O)n1 [GEM, gemcitabine, reference compound]",TGI based on tumor sizes,[1],30.02%
Toripalimab [anti-PD-1],TGI based on tumor sizes,[1],17.05%
same,Average tumor size,"[6]; Day 0 (day of grouping, start of dosing)",59.1 ± 0.4 mm^3
same,Average tumor size,"[6]; Day 14, Compound 6 8 mg/kg IP QD Day 0-13, anti-PD-1 or hIgG4 3 mg/kg IP Q2D",792.1 ± 207.1 mm^3
same,TGI (%) on D14,"[6]; Day 14, Compound 6 8 mg/kg IP QD, anti-PD-1 or hIgG4 3 mg/kg IP Q2D",58%
same,TGI,[7],46.95%
ipilimumab,patients who experienced immune-related adverse effects,[8],64%
